According to PMC10093837, “Rutin Concentration and Characterization of Rutinosidase in Perennial Buckwheat (Fagopyrum cymosum) and Its Application in Foods” (Foods, 2023):

Test system: T1, FC rutinosidase
T1 construct: gene f3g; native, purified from dehulled seeds (Q-Sepharose, Superdex 200, Mono Q twice); 58,400 +/- 2700 Da by gel filtration; single isozyme in native-PAGE
Test: UPLC of released quercetin; Lineweaver-Burk
Format: biochemical, Fagopyrum cymosum
Settings: 50 mM acetate-LiOH pH 5.0, 20% (v/v) methanol, 25 °C (standard assay)
Source text: UPLC of released quercetin; Lineweaver-Burk on FC rutinosidase

SMILES: C[C@@H]1O[C@@H](OC[C@H]2O[C@@H](Oc3c(-c4ccc(O)c(O)c4)oc4cc(O)cc(O)c4c3=O)[C@H](O)[C@@H](O)[C@@H]2O)[C@H](O)[C@H](O)[C@H]1O [rutin]
- Km: 367 ± 23.5 µM
